Reference: patent US12258337B2, “Bicyclic CX3CR1 receptor agonists” (Board of Regents, The University of Texas System, priority 2019, dated 2025)

What was measured:
Assay in all cases: Ga16 assay, CX3CR1 agonism, Ca2+ sensitive photo-protein readout (FLIPRTETRA)
Type in all cases: cell-based
hCX3CR1 = molecular target: T1, hCX3CR1 (Homo sapiens, UniProt P49238); parameters: expressed in transfected cells; stably expresses a Ca2+ sensitive photo-protein; conditions: human CX3CR1 cell line
T1 sequence (P49238 1-355): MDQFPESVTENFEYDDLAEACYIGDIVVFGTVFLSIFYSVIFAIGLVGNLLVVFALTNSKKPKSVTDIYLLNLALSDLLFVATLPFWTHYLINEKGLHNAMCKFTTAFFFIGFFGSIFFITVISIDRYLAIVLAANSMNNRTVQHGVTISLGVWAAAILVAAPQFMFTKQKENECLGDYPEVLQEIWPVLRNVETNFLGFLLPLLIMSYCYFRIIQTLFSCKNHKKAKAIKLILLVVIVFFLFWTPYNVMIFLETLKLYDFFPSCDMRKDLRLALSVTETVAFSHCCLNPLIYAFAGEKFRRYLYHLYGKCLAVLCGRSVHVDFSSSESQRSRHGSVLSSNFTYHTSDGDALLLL
Protocol: (§1) Compounds (as well as stereoisomer(s) thereof and/or salt(s) thereof) were tested for CX3CR1 agonism in a cell based assay with fluorescent readout in Agonist Mode in dose response in quadruplicate with intra-plate modality).
(§2) Buffers and reagents. PBS (D-PBS without calcium and magnesium; EuroClone); Trypsin (Trypsin 0.05%, EDTA 0.02% in PBS; EuroClone); DMSO (Sigma); Standard tyrode buffer: in-house solution (130 mM NaCl, 5 mM KCl, 2 mM CaCl2), 1 mM MgCl2, 5 mM NaHCO3, 20 mM HEPES in water at pH 7.4; sterile filtered); Coelenterazine, native (Biosynth); stock 10 mM; Agonist: Recombinant Human Fractalkine (CX3CL1) (PeproTech); stock: 10 μM in standard tyrode buffer+BSA 0.1%; stored at −20° C.
(§3) Cell line. Human (hCX3CR1), mouse (mCX3CR1), and rat (rCX3CR1) were used for the assay.
(§4) Assay protocol. Experiments ere performed in 384 MTP format. Cells were seeded at 7,500 cells/well in 25 μl/well complete growth medium without selection antibiotics in 384-well plates. Twenty-four hours later, cells ere assayed for the response to various compounds using the Ca^2+ sensitive photo-protein stably expressed in the cells as readout.
(§5) The experiment was performed in a 384-well format according to the following procedure: • 24h after seeding, pre-incubate the cells at room temperature for 1 hour. • Then remove the culture medium. • Load cells with 20 μL/well of standard tyrode buffer+10 μM ceolenterazine. • Incubate cell plates for 3 hours at RT. • Inject 10 μL/w of 3× concentrated test compounds and controls in assay buffer at the FLIPRTETRA and monitor the kinetic response over a period of 90 seconds.
(§6) Data from FLIPRTETRA measurements were analyzed with the Genedata Screener© software. The following examples are meant to illustrate, but in no way to limit, the claimed invention.

mCX3CR1 = molecular target: T2, mCX3CR1 (Mus musculus, UniProt Q9Z0D9); conditions: mouse CX3CR1 cell line
T2 construct: expressed in transfected cells; stably expresses a Ca2+ sensitive photo-protein
T2 sequence (Q9Z0D9 1-354): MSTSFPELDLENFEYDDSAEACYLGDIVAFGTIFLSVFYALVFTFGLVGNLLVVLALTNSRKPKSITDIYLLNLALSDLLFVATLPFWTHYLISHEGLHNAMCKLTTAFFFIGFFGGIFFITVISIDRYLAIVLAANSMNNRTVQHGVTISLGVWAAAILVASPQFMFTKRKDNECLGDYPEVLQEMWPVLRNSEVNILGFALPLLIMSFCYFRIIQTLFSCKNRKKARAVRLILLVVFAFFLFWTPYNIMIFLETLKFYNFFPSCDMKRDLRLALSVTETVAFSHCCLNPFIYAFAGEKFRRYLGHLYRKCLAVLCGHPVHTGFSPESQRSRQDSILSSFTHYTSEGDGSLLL
Protocol: as §1, §2, §3, §4, §5, §6

rCX3CR1 = molecular target: T3, rCX3CR1 (Rattus norvegicus, UniProt P35411); conditions: rat CX3CR1 cell line
T3 construct: expressed in transfected cells; stably expresses a Ca2+ sensitive photo-protein
T3 sequence (P35411 1-354): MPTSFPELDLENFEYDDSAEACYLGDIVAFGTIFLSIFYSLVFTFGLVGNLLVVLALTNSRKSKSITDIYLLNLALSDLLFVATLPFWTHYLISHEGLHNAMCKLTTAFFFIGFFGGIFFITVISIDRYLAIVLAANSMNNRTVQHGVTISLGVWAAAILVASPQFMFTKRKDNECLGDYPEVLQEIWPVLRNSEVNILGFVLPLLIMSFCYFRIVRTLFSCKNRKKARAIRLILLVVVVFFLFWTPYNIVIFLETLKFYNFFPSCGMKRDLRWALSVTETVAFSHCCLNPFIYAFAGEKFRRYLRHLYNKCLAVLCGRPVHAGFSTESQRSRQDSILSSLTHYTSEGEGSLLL
Protocol: as §1, §2, §3, §4, §5, §6

SMILES: O=C(NCC1(CN2CCCC2)CCOC1)c1cc2c(s1)CCCCCC2 (stereo not drawn) [Example 39, N-[[3-(pyrrolidin-1-ylmethyl)oxolan-3-yl]methyl]-4,5,6,7,8,9-hexahydrocycloocta[b]thiophene-2-carboxamide]
- EC50 (hCX3CR1): 11.1 µM
- EC50 (mCX3CR1): 9.6 µM
- EC50 (rCX3CR1): 10.9 µM

SMILES: CN(C)CC1(CNC(=O)c2cc3c(s2)CCCCCC3)CCCOC1 (stereo not drawn) [Example 37, N-[[3-[(dimethylamino)methyl]oxan-3-yl]methyl]-4,5,6,7,8,9-hexahydrocycloocta[b]thiophene-2-carboxamide]
- EC50 (hCX3CR1): 12.2 µM
- EC50 (mCX3CR1): 15 µM
- EC50 (rCX3CR1): 11.5 µM

SMILES: O=C(NCC1(CN2CCC2)CCOCC1)c1cc2c(s1)CCCCCC2 [Example 35, N-[[4-(azetidin-1-ylmethyl)oxan-4-yl]methyl]-4,5,6,7,8,9-hexahydrocycloocta[b]thiophene-2-carboxamide]
- EC50 (hCX3CR1): 12.8 µM
- EC50 (mCX3CR1): 18 µM
- EC50 (rCX3CR1): 12.1 µM

SMILES: O=C(NCC1(CN2CCC2)CCC1)c1cc2c(s1)CCCCCC2 [Example 36, N-[[1-(azetidin-1-ylmethyl)cyclobutyl]methyl]-4,5,6,7,8,9-hexahydrocycloocta[b]thiophene-2-carboxamide]
- EC50 (hCX3CR1): 9.1 µM
- EC50 (mCX3CR1): > 100 µM
- EC50 (rCX3CR1): > 100 µM

SMILES: COCCOC1CCN(CC(C)(C)CNC(=O)c2cc3c(s2)CCCCCC3)CC1 [Example 42, N-[3-[4-(2-methoxyethoxy)piperidin-1-yl]-2,2-dimethylpropyl]-4,5,6,7,8,9-hexahydrocycloocta[b]thiophene-2-carboxamide]
- EC50 (hCX3CR1): 22.6 µM
- EC50 (mCX3CR1): > 100 µM
- EC50 (rCX3CR1): 81.4 µM

SMILES: CN(C)CC1(CNC(=O)c2cc3c(s2)CCCCCC3)CCOC1 (stereo not drawn) [Example 38, N-[[3-[(dimethylamino)methyl]oxolan-3-yl]methyl]-4,5,6,7,8,9-hexahydrocycloocta[b]thiophene-2-carboxamide]
- EC50 (hCX3CR1): 10 µM
- EC50 (mCX3CR1): 15.8 µM
- EC50 (rCX3CR1): 13.1 µM

SMILES: O=C(NCC1(CN2CCC(O)CC2)CCOCC1)c1cc2c(s1)CCCCCC2 [Example 40, N-[[4-[(4-hydroxypiperidin-1-yl)methyl]oxan-4-yl]methyl]-4,5,6,7,8,9-hexahydrocycloocta[b]thiophene-2-carboxamide]
- EC50 (hCX3CR1): 20.8 µM
- EC50 (mCX3CR1): 83.8 µM
- EC50 (rCX3CR1): 74.9 µM

SMILES: O=C(NCC1(CN2CCCC2)CCCOC1)c1cc2c(s1)CCCCCC2 (stereo not drawn) [Example 44, N-[[3-(pyrrolidin-1-ylmethyl)oxan-3-yl]methyl]-4,5,6,7,8,9-hexahydrocycloocta[b]thiophene-2-carboxamide]
- EC50 (hCX3CR1): 9.6 µM
- EC50 (mCX3CR1): 10.8 µM
- EC50 (rCX3CR1): 8.4 µM
